Consider 23 compounds from patent publication US11957687B2 (REGENERON PHARMACEUTICALS, INC., priority 2019, dated 2024).

The target of this test is HSD17B13 (Homo sapiens (Human), UniProt Q7Z5P4). The test can be described thus: HSD17B13 enzymatic inhibition assay (150 nM or 50 nM HSD17B13). In kind it is biochemical. As to conditions: 50 nM HSD17B13; read-out: Inhibition of 50 nM of HSD17B13 IC50.
HSD17B13, sequence (Q7Z5P4 other isoform, or with tags, fused parts or gaps): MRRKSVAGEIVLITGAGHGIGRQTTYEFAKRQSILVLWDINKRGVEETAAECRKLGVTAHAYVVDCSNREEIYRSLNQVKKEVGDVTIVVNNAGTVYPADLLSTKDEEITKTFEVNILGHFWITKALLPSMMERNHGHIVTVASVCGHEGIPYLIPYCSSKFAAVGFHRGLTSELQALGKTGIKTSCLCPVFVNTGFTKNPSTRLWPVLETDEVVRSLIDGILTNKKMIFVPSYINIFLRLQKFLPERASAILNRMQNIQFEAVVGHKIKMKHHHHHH
Regarding `Nc1ccc(CSc2ncc(C(=O)NC3c4ccc(Cl)cc4Oc4cc(Cl)ccc43)c(=O)[nH]2)cc1C(F)(F)F` [Compound 522, 2-((4-amino-3-(trifluoromethyl)benzyl)thio)-N-(3,6-dichloro-9H-xanthen-9-yl)-6-oxo-1,6-dihydropyrimidine-5-carboxamide], the IC50 (usually the concentration that gives 50% inhibition) worked out at 610 nM.
On to `Cc1ccc2c(c1)Oc1cccc(C)c1C2NC(=O)c1cc(CCN(C)C)c(C(F)(F)F)[nH]c1=O` (centres unmarked) [Compound 523, N-(1,6-dimethyl-9H-xanthen-9-yl)-5-(2-(dimethylamino)ethyl)-2-oxo-6-(trifluoromethyl)-1,2-dihydropyridine-3-carboxamide], for which the IC50 was above 10000 nM.
Turning to `CNCCc1cc(C(=O)NC2c3ccc(C)cc3Oc3cccc(C)c32)c(=O)[nH]c1C(F)(F)F` (centres unmarked) [Compound 524, N-(1,6-dimethyl-9H-xanthen-9-yl)-5-(2-(methylamino)ethyl)-2-oxo-6-(trifluoromethyl)-1,2-dihydropyridine-3-carboxamide], the half-inhibitory concentration (IC50) is 9330 nM.
On to `CNCc1cc(C(=O)NC2c3ccc(C)cc3Oc3cccc(C)c32)c(=O)[nH]c1C(F)(F)F` (centres unmarked) [Compound 525, N-(1,6-dimethyl-9H-xanthen-9-yl)-5-((methylamino)methyl)-2-oxo-6-(trifluoromethyl)-1,2-dihydropyridine-3-carboxamide], for which the IC50 was 6510 nM.
The same measure for `Cc1ccc2c(c1)Oc1cccc(C)c1C2NC(=O)c1cc(CN(C)C)c(C(F)(F)F)[nH]c1=O` (centres unmarked) [Compound 526, N-(1,6-dimethyl-9H-xanthen-9-yl)-5-((dimethylamino)methyl)-2-oxo-6-(trifluoromethyl)-1,2-dihydropyridine-3-carboxamide]: 3780 nM; for `N#Cc1cccc2c1C(NC(=O)c1ccc(C(F)(F)F)[nH]c1=O)c1ccccc1O2` (centres unmarked) [Compound 527, N-(1-cyano-9H-xanthen-9-yl)-2-oxo-6-(trifluoromethyl)-1,2-dihydropyridine-3-carboxamide]: 990 nM; for `O=C(NC1c2ccc(Cl)cc2Oc2cccc(Cl)c21)c1cnc(SCc2ccccc2C(F)(F)F)[nH]c1=O` (centres unmarked) [Compound 529, N-(1,6-dichloro-9H-xanthen-9-yl)-6-oxo-2-((2-(trifluoromethyl)benzyl)thio)-1,6-dihydropyrimidine-5-carboxamide]: above 10000 nM.
On to `CCc1cccc2c1CCCC2NC(=O)c1ccc(C(F)(F)F)[nH]c1=O` (centres unmarked) [Compound 530, N-(5-ethyl-1,2,3,4-tetrahydronaphthalen-1-yl)-2-oxo-6-(trifluoromethyl)-1,2-dihydropyridine-3-carboxamide], for which the IC50 is above 10000 nM.
`CCCc1cccc2c1CCCC2NC(=O)c1ccc(C(F)(F)F)[nH]c1=O` (centres unmarked) [Compound 531, 2-oxo-N-(5-propyl-1,2,3,4-tetrahydronaphthalen-1-yl)-6-(trifluoromethyl)-1,2-dihydropyridine-3-carboxamide]: the IC50 was above 10000 nM.
In the case of `C=CCc1cccc2c1CCCC2NC(=O)c1ccc(C(F)(F)F)[nH]c1=O` (centres unmarked) [Compound 532, N-(5-allyl-1,2,3,4-tetrahydronaphthalen-1-yl)-2-oxo-6-(trifluoromethyl)-1,2-dihydropyridine-3-carboxamide], the IC50 was found to be 5200 nM.
Consider `O=C(NC1c2ccc(Cl)cc2Oc2cc(Cl)ccc21)c1cnc(COc2cccc(C(F)(F)F)c2)[nH]c1=O` [Compound 534, N-(3,6-dichloro-9H-xanthen-9-yl)-6-oxo-2-((3-(trifluoromethyl)phenoxy)methyl)-1,6-dihydropyrimidine-5-carboxamide], for which the IC50 came to 1080 nM.
For the compound `Cc1ccc2c(c1)Sc1cc(C)ccc1C2NC(=O)c1cc(Br)c(C(F)(F)F)[nH]c1=O` [Compound 535, 5-bromo-N-(3,6-dimethyl-9H-thioxanthen-9-yl)-2-oxo-6-(trifluoromethyl)-1,2-dihydropyridine-3-carboxamide], the IC50 came out at 50 nM.
Take `C=Cc1ccc2c(c1)C(NC(=O)c1ccc(C(F)(F)F)[nH]c1=O)c1ccccc1S2` (centres unmarked) [Compound 536, 2-oxo-6-(trifluoromethyl)-N-(2-vinyl-9H-thioxanthen-9-yl)-1,2-dihydropyridine-3-carboxamide]: the concentration for half-maximal inhibition (IC50) was 320 nM.
In the case of `CCc1ccc2c(c1)C(NC(=O)c1ccc(C(F)(F)F)[nH]c1=O)c1ccccc1S2` (centres unmarked) [Compound 537, N-(2-ethyl-9H-thioxanthen-9-yl)-2-oxo-6-(trifluoromethyl)-1,2-dihydropyridine-3-carboxamide], the IC50 was found to be 150 nM.
On to `C=Cc1cc(C(=O)NC2c3ccc(C)cc3Sc3cc(C)ccc32)c(=O)[nH]c1C(F)(F)F` [Compound 538, N-(3,6-dimethyl-9H-thioxanthen-9-yl)-2-oxo-6-(trifluoromethyl)-5-vinyl-1,2-dihydropyridine-3-carboxamide], for which the IC50 is 40 nM.
As to `C=CCc1cccc(C(NC(=O)c2ccc(C(F)(F)F)[nH]c2=O)c2ccccc2)c1` (centres unmarked) [Compound 539, N-((3-allylphenyl)(phenyl)methyl)-2-oxo-6-(trifluoromethyl)-1,2-dihydropyridine-3-carboxamide], the IC50 turned out to be 740 nM.
As to `CSc1cc(C)ccc1C(NC(=O)c1ccc(C(F)(F)F)[nH]c1=O)c1ccccc1` (centres unmarked) [Compound 540, N-((4-methyl-2-(methylthio)phenyl)(phenyl)methyl)-2-oxo-6-(trifluoromethyl)-1,2-dihydropyridine-3-carboxamide], the IC50 turned out to be 1130 nM.
With `Cc1ccc2c(c1)O[C@@H]1CCCC[C@H]1[C@H]2NC(=O)c1ccc(C(F)(F)F)[nH]c1=O` [Compound 541, N-((4aR,9R,9aS)-6-methyl-2,3,4,4a,9,9a-hexahydro-1H-xanthen-9-yl)-2-oxo-6-(trifluoromethyl)-1,2-dihydropyridine-3-carboxamide], the IC50 worked out at 60 nM.
In the case of `CCCC1=C(NC(=O)c2ccc(C(F)(F)F)[nH]c2=O)c2cc(C)ccc2C1=O` [Compound 542, N-(5-methyl-1-oxo-2-propyl-1H-inden-3-yl)-2-oxo-6-(trifluoromethyl)-1,2-dihydropyridine-3-carboxamide], the IC50 came out at 4670 nM.
As to `CCCC1=C(NC(=O)c2ccc(C(F)(F)F)[nH]c2=O)c2cc(C)ccc2C1O` (centres unmarked) [Compound 544, N-(1-hydroxy-5-methyl-2-propyl-1H-inden-3-yl)-2-oxo-6-(trifluoromethyl)-1,2-dihydropyridine-3-carboxamide], the half-inhibitory concentration (IC50) was 1150 nM.
As for `Cc1ccc2c(c1)N(C(=O)OC(C)(C)C)CCC2NC(=O)c1ccc(C(F)(F)F)[nH]c1=O` (centres unmarked) [Compound 546, tert-butyl 7-methyl-4-(2-oxo-6-(trifluoromethyl)-1,2-dihydropyridine-3-carboxamido)-3,4-dihydroquinoline-1(2H)-carboxylate], the figure is above 10000 nM; as for `C=Cc1cccc2c1CCCC2NC(=O)c1ccc(C(F)(F)F)[nH]c1=O` (centres unmarked) [Compound 547, 2-oxo-6-(trifluoromethyl)-N-(5-vinyl-1,2,3,4-tetrahydronaphthalen-1-yl)-1,2-dihydropyridine-3-carboxamide], 6240 nM; as for `O=C(NC1CCCc2c(/C=C/c3ccccc3)cccc21)c1ccc(C(F)(F)F)[nH]c1=O` (centres unmarked) [Compound 548, (E)-2-oxo-N-(5-styryl-1,2,3,4-tetrahydronaphthalen-1-yl)-6-(trifluoromethyl)-1,2-dihydropyridine-3-carboxamide], 9280 nM.
